The text below walks through data of ChEMBL document CHEMBL5036377, “Improved Metabolically Stable 5-HT Receptor Modulators and the Development of New Antidepressants” (ACS Med Chem Lett, 2022).

A short description of data set [1]: Stability in rat brain homogenate assessed as compound remaining measured after 120 mins. The settings on record: read-out: Stability. The data set is classed as ADME, tissue-based.
Data set [2] in a line: Stability in rat brain homogenate assessed as half life. The data set is classed as ADME, tissue-based.
Data set [3] in a line: Stability in human liver mitochondria assessed as compound remaining in presence of MAO-A and MAO-B measured after 60 mins. The data set is classed as ADME. The settings on record: read-out: Stability.

As a reminder, the half-life is the time in which the quantity being followed falls by half. For the compound `CN(C)CCc1c[nH]c2ccccc12`, the remaining at 2 h in data set [1] worked out at 0%. Besides, the half-life in data set [2] is 5.1 min. Further, in data set [3], the remaining at 1 h is 8.9%.

As for `COc1ccc2[nH]cc(CCN3CCC3)c2c1`, in data set [1], the remaining at 2 h is 98%. Also, in data set [2], the half-life is over 289 min. Besides, the remaining at 1 h in data set [3] was determined as 106%.

As for `Oc1cccc2[nH]cc(CCN3CCC3)c12`, the remaining at 2 h in data set [1] came out at 56.8%. Besides, the half-life in data set [2] was 174 min. Moreover, in data set [3], the remaining at 1 h was found to be 88.2%.

Regarding `c1ccc2c(CCN3CCC3)c[nH]c2c1`, the remaining at 2 h in data set [1] was determined as 91.9%. For the same compound, in data set [2], the half-life is over 289 min. Besides, the remaining at 1 h in data set [3] came to 85.2%.

As to `COc1ccc2[nH]cc(CCN(C)C)c2c1` [MEBUFOTENIN], the remaining at 2 h in data set [1] turned out to be 0.3%. In addition, the half-life in data set [2] was found to be 14.4 min. Besides, the remaining at 1 h in data set [3] was 47.1%.

Consider `CN(C)CCc1c[nH]c2cccc(O)c12` [PSILOCIN], for which the remaining at 2 h in data set [1] was 46.1%. Moreover, in data set [2], the half-life turned out to be 115 min. In data set [3], the remaining at 1 h amounted to 112%.
